molecular target: b-Raf (V600E) (Homo sapiens (Human), UniProt P15056, V600E); conditions: read-out: b-Raf IC-50
Sequence (P15056 whole entry V600E): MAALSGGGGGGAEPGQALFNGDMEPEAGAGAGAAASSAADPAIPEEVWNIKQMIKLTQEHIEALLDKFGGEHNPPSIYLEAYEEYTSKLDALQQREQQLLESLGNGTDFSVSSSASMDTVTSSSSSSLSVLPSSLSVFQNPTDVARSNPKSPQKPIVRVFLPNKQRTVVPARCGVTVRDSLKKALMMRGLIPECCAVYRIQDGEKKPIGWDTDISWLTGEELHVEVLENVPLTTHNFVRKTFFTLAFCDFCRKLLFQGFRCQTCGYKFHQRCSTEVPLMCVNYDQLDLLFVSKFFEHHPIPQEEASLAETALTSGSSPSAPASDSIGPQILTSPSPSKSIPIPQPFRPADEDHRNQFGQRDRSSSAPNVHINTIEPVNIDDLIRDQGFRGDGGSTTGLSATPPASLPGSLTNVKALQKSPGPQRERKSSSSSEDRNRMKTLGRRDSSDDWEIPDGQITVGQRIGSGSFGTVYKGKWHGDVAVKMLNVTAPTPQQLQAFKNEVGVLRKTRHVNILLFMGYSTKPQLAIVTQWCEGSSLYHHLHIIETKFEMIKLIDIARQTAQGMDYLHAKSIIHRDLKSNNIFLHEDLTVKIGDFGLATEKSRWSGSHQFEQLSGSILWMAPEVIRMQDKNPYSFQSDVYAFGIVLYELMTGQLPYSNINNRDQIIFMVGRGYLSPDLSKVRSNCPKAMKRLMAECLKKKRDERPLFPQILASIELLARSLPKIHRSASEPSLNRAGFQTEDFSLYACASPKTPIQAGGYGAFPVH

Row | SMILES | IC50 [nM]
1 | COc1cc(-c2cc(NC(=O)c3cccc(C(F)(F)F)c3)ccc2C)nc(N2CCOCC2)c1 [Example 196, N-(3-(4-methoxy-6-morpholinopyridin-2-yl)-4-methylphenyl)-3-(trifluoromethyl)benzamide] | 1.5

same assay, conditions: read-out: b-Raf IC-50; AlphaScreen, 60 min pre-incubation, 3 hours reaction

Row | IC50 [nM] | SMILES
2 | 8.4 | CCNc1nc(-c2cc(NC(=O)c3ccnc(C(C)(C)C#N)c3)cnc2C)cc(N2CCOCC2)n1 [Example 718, 2-(2-cyanopropan-2-yl)-N-(5-(2-(ethylamino)-6-morpholinopyrimidin-4-yl)-6-methylpyridin-3-yl)isonicotinamide]
3 | 2.6 | Cc1ccc(NC(=O)c2ccnc(C(C)(C)O)c2)cc1-c1cc(N2CCOCC2)n2nccc2n1 [Example 794, 2-(2-hydroxypropan-2-yl)-N-(4-methyl-3-(7-morpholinopyrazolo[1,5-a]pyrimidin-5-yl)phenyl)isonicotinamide]
4 | 2.5 | CCNc1nc(-c2cc(NC(=O)c3ccnc(C(C)(C)O)c3)ccc2C)cc(N2CCOC[C@@H]2C)n1 [Example 713, (S)—N-(3-(2-(ethylamino)-6-(3-methylmorpholino)pyrimidin-4-yl)-4-methylphenyl)-2-(2-hydroxypropan-2-yl)isonicotinamide]
5 | 6.3 | Cc1ccc(NC(=O)c2ccnc(C(C)(C)F)c2)cc1-c1cc(N2CCOC[C@H]2C)c(=O)n(C)n1 [Example 673, (R)-2-(2-fluoropropan-2-yl)-N-(4-methyl-3-(1-methyl-5-(3-methylmorpholino)-6-oxo-1,6-dihydropyridazin-3-yl)phenyl)isonicotinamide]
6 | 7.2 | Cc1ncc(NC(=O)c2ccnc(C(C)(C)C#N)c2)cc1-c1cc(N2CCOCC2)c(OC2CCOCC2)nn1 [Example 633, 2-(2-cyanopropan-2-yl)-N-(6-methyl-5-(5-morpholino-6-((tetrahydro-2H-pyran-4-yl)oxy)pyridazin-3-yl)pyridin-3-yl)isonicotinamide]
7 | 0.6 | Cc1ccc(NC(=O)c2ccnc(C(C)(C)F)c2)cc1-c1cc(N2CCOCC2)c(OC(C)C)nn1 [Example 595, 2-(2-fluoropropan-2-yl)-N-(3-(6-isopropoxy-5-morpholinopyridazin-3-yl)-4-methylphenyl)isonicotinamide]
8 | 4.4 | CCNc1nc(-c2cc(NC(=O)c3ccnc(C4(C#N)CC4)c3)cnc2C)cc(N2CCOCC2)n1 [Example 728, 2-(1-cyanocyclopropyl)-N-(5-(2-(ethylamino)-6-morpholinopyrimidin-4-yl)-6-methylpyridin-3-yl)isonicotinamide]
9 | 7.7 | Cc1ncc(NC(=O)c2ccnc(C(C)(C)C#N)c2)cc1-c1cncc(N2CCOCC2)n1 [Example 532, 2-(2-cyanopropan-2-yl)-N-(6-methyl-5-(6-morpholinopyrazin-2-yl)pyridin-3-yl)isonicotinamide]
10 | 47.4 | Cc1ncc(NC(=O)c2ccnc(C(C)(C)C#N)c2)cc1-c1cc(N2CCOCC2)nc(N2CC(O)C2)n1 [Example 767, 2-(2-cyanopropan-2-yl)-N-(5-(2-(3-hydroxyazetidin-1-yl)-6-morpholinopyrimidin-4-yl)-6-methylpyridin-3-yl)isonicotinamide]

The next lines start with the molecule.

Row | SMILES | IC50 [nM]
11 | COc1nnc(-c2cc(NC(=O)c3ccnc(C4CC4)c3)ccc2C)cc1N1CCOCC1 [Example 550, 2-cyclopropyl-N-(3-(6-methoxy-5-morpholinopyridazin-3-yl)-4-methylphenyl)isonicotinamide] | 1.2
12 | CCOc1nnc(-c2cc(NC(=O)c3cccc(C(F)(F)F)c3)cnc2C)cc1N1CCOC[C@H]1C [Example 622, (R)—N-(5-(6-ethoxy-5-(3-methylmorpholino)pyridazin-3-yl)-6-methylpyridin-3-yl)-3-(trifluoromethyl)benzamide] | 4.9
13 | COCCOc1nnc(-c2cc(NC(=O)c3ccnc(C(F)F)c3)ccc2C)cc1N1CCOCC1 [Example 598, 2-(difluoromethyl)-N-(3-(6-(2-methoxyethoxy)-5-morpholinopyridazin-3-yl)-4-methylphenyl)isonicotinamide] | 1.1
14 | Cc1ccc(NC(=O)c2ccnc(S(C)(=O)=O)c2)cc1-c1cc(N2CCOCC2)nc(N(C)C)n1 [Example 759, N-(3-(2-(dimethylamino)-6-morpholinopyrimidin-4-yl)-4-methylphenyl)-2-(methylsulfonyl)isonicotinamide] | 11.5
15 | CCOc1nnc(-c2cc(NC(=O)c3ccc(CO)c(C(F)(F)F)c3)cnc2C)cc1N1CCOCC1 [Example 627, N-(5-(6-ethoxy-5-morpholinopyridazin-3-yl)-6-methylpyridin-3-yl)-4-(hydroxymethyl)-3-(trifluoromethyl)benzamide] | 3.7
16 | Cc1ccc(NC(=O)c2cnnc(C3CC3)c2)cc1-c1cc(N2CCOCC2)n(C)c(=O)c1 [Example 496, 6-cyclopropyl-N-(4-methyl-3-(1-methyl-6-morpholino-2-oxo-1,2-dihydropyridin-4-yl)phenyl)pyridazine-4-carboxamide] | 0.9

same assay, conditions: read-out: b-Raf IC-50; AlphaScreen, 60 min pre-incubation, reaction 3 hours at room temperature

Row | IC50 [nM] | SMILES
17 | 11.9 | CCOc1cc(-c2cc(NC(=O)c3ccnc(C(C)(C)O)c3)cnc2C)cc(N2CCOCC2)n1 [Example 1148, N-(2′-ethoxy-2-methyl-6′-morpholino-[3,4′-bipyridin]-5-yl)-2-(2-hydroxypropan-2-yl)isonicotinamide]
18 | 8.48 | CCOc1ccc(-c2cc(NC(=O)c3ccnc(C(C)(C)F)c3)cnc2C)nc1N1CCOCC1 [Example 1027, N-(5-ethoxy-2′-methyl-6-morpholino-[2,3′-bipyridin]-5′-yl)-2-(2-fluoropropan-2-yl)isonicotinamide]
19 | 4.06 | Cc1ncc(NC(=O)c2ccnc(C(F)(F)F)c2)cc1-c1cc(N2CCOCC2)nc(N2CC(O)C2)c1 [Example 1088, N-(2′-(3-hydroxyazetidin-1-yl)-2-methyl-6′-morpholino-[3,4′-bipyridin]-5-yl)-2-(trifluoromethyl)isonicotinamide]
20 | 7.72 | CCOc1nnc(-c2cc(C(=O)Nc3ccnc(C(C)(F)F)c3)ccc2C)cc1N1CCOCC1 [Example 1020, N-(2-(1,1-difluoroethyl)pyridin-4-yl)-3-(6-ethoxy-5-morpholinopyridazin-3-yl)-4-methylbenzamide]
21 | 2.66 | Cc1ncc(NC(=O)c2cncc(C(F)(F)F)c2)cc1-c1cnc(OC(C)C)c(N2CCOCC2)c1 [Example 960, N-(6′-isopropoxy-2-methyl-5′-morpholino-[3,3′-bipyridin]-5-yl)-5-(trifluoromethyl)nicotinamide]

Continued, molecule first:

Row | SMILES | IC50 [nM]
22 | Cc1ccc(NC(=O)c2cc(C3CC3)on2)cc1-c1cc(N2CCOCC2)nc(N2CC(O)C2)c1 [Example 1095, 5-cyclopropyl-N-(3-(2-(3-hydroxyazetidin-1-yl)-6-morpholinopyridin-4-yl)-4-methylphenyl)isoxazole-3-carboxamide] | 1.11
23 | Cc1ccc(NC(=O)c2ccnc(C(F)(F)F)c2)cc1-c1cc(N2CCOCC2)c2nccn2c1 [Example 849, N-(4-methyl-3-(8-morpholinoimidazo[1,2-a]pyridin-6-yl)phenyl)-2-(trifluoromethyl)isonicotinamide] | 3.8
24 | Cc1ncc(NC(=O)c2ccnc(C3(C#N)CC3)c2)cc1-c1cc(N2CCOCC2)nc(N2CC(C)(O)C2)c1 [Example 1109, 2-(1-cyanocyclopropyl)-N-(2′-(3-hydroxy-3-methylazetidin-1-yl)-2-methyl-6′-morpholino-[3,4′-bipyridin]-5-yl)isonicotinamide] | 8.02
25 | Cc1ccc(NC(=O)c2cnnc(C(F)(F)F)c2)cc1-c1cc(NCCO)nc(N2CCOCC2)c1F [Example 1013, N-(3-(3-fluoro-6-((2-hydroxyethyl)amino)-2-morpholinopyridin-4-yl)-4-methylphenyl)-6-(trifluoromethyl)pyridazine-4-carboxamide] | 9.79
26 | Cc1ncc(NC(=O)c2cnnc(C3CC3)c2)cc1-c1cc(NCCO)nc(N2CCOCC2)c1 [Example 1052, 6-cyclopropyl-N-(2′-((2-hydroxyethyl)amino)-2-methyl-6′-morpholino-[3,4′-bipyridin]-5-yl)pyridazine-4-carboxamide] | 8.24
27 | Cc1ccc(NC(=O)c2cc(C(C)(F)F)ccn2)cc1-c1cc(N2CCOCC2)c(=O)n(C)c1 [Example 905, 4-(1,1-difluoroethyl)-N-(4-methyl-3-(1-methyl-5-morpholino-6-oxo-1,6-dihydropyridin-3-yl)phenyl)picolinamide] | 2.33

same assay, conditions: read-out: b-Raf IC-50; Table 2; AlphaScreen, 3 hours reaction

Row | IC50 [nM] | SMILES
28 | 3.5 | Cc1ccc(NC(=O)c2ccnc(C(C)(C)O)c2)cc1-c1cc(N2CCOCC2)c(=O)n(C)c1 [Example 350, 2-(2-hydroxypropan-2-yl)-N-(4-methyl-3-(1-methyl-5-morpholino-6-oxo-1,6-dihydropyridin-3-yl)phenyl)isonicotinamide]
29 | 1.8 | COc1ncc(-c2cc(NC(=O)c3ccnc(C(C)(F)F)c3)cnc2Cl)cc1N1CCOCC1 [Example 261, N-(2-chloro-6′-methoxy-5′-morpholino-[3,3′-bipyridin]-5-yl)-2-(1,1-difluoroethyl)isonicotinamide]
30 | 2.3 | Cc1ncc(NC(=O)c2ccnc(C(F)(F)F)c2)cc1-c1cnc(Cl)c(N2CCOCC2)c1 [Example 291, N-(6′-chloro-2-methyl-5′-morpholino-[3,3′-bipyridin]-5-yl)-2-(trifluoromethyl)isonicotinamide]

The next lines start with the molecule.

Row | SMILES | IC50 [nM]
31 | Cn1cc(-c2cc(NC(=O)c3ccnc(C(C)(F)F)c3)ccc2Cl)cc(N2CCOCC2)c1=O [Example 414, N-(4-chloro-3-(1-methyl-5-morpholino-6-oxo-1,6-dihydropyridin-3-yl)phenyl)-2-(1,1-difluoroethyl)isonicotinamide] | 1.4
32 | Cn1cc(-c2cc(C(=O)Nc3cccc(C(F)(F)F)c3)cnc2Cl)cc(N2CCOCC2)c1=O [Example 423, 2-chloro-1′-methyl-5′-morpholino-6′-oxo-N-(3-(trifluoromethyl)phenyl)-1′,6′-dihydro-[3,3′-bipyridine]-5-carboxamide] | 6
33 | Cc1ncc(NC(=O)c2ccnc(C(F)(F)F)c2)cc1-c1cnc(OC2CCOCC2)c(N2C3CCC2COC3)c1 [Example 278, N-(5′-(3-oxa-8-azabicyclo[3.2.1]octan-8-yl)-2-methyl-6′-((tetrahydro-2H-pyran-4-yl)oxy)-[3,3′-bipyridin]-5-yl)-2-(trifluoromethyl)isonicotinamide] | 8.4

From US9694016B2 (Novartis AG, priority 2013, dated 2017)
